Results as given in patent publication US20040038947A1, “Method of treating ischemia/reperfusion injury with nitroxyl donors” (The Gov. of the U.S. of America as represented by the Sec. …, priority 2002, published 2004).

Legend:
Isolated rat hearts [1] = assay: Myocardial injury: infarct area by nitro blue tetrazolium staining
Procedure: (§1) Experimental Protocols. Hearts were allowed to stabilize for 30 min, and baseline parameters were recorded. Typically, coronary flow was adjusted within the first 10 min and kept constant from thereon. After 30 min stabilization, hearts were randomly assigned to one of the treatment groups reported below (n=12 in each group), and then subjected to 30 min global, no-flow ischemia, followed by 30 min of reperfusion (I/R) (see FIG. 1). Pacing of the hearts was stopped at the beginning of the ischemic period and restarted after the third minute of reperfusion.
(§2) Hearts in the control group (Group 1) were perfused with buffer for an additional 29 min after stabilization. Group 2 hearts were exposed to AS (1 μM final concentration) for 19 min followed by a 10 min buffer wash-out period. Group 3 hearts were exposed to DEA/NO (0.5 μM final concentration) administered in the same manner as AS. The concentration of DEA/NO was only one half of that of AS since DEA/NO releases up to two moles of […] per mole of donor molecule. In Group 4, a train of three cycles of 3 min global ischemia followed by 5 min of reperfusion was applied after the stabilization phase, followed by a final 10 min buffer wash-out period (IPC protocol).
(§3) Group 5 hearts were exposed to the vehicle (NaOH, final concentration 100 nM) used to dissolve both AS and DEA/NO. To test the influence of switching the myocardial redox state on AS-induced effects, in an additional group of hearts (Group 6) AS was co-infused with N-acetyl-L-cysteine (NAC, 4 mM final concentration). For comparison, hearts were also exposed to NAC alone (Group 7). […]
To corroborate the data relative to myocardial injury, determined by LDH release, infarct areas were also assessed in a blinded fashion. […] The weight of the necrotic and non-necrotic tissues was then determined and the necrotic mass expressed as a percentage of total left ventricular mass.

Isolated rat hearts [2] = assay: Pre-ischemic cardiac function of isolated perfused rat hearts (Table 1); details: mean
Procedure: (§4) Isolated heart perfusion. Each animal was anesthetized with 1 g/kg urethane i.p. 10 min after heparin (2,500 U, i.m.) treatment. The chest was opened, and the heart was rapidly excised, placed in ice-cold buffer solution and weighed. Isolated rat hearts were attached to the perfusion apparatus and retrogradely perfused with oxygenated buffer solution at 37° C. The hearts were instrumented as previously described in Rastaldo et al., “P-450 metabolite of arachidonic acid mediates bradykinin-induced negative inotropic effect,” Am. J. Physiol., 280:H2823-H2832 (2001), and Paolocci et al. “cGMP-independent inotropic effects of nitric oxide and peroxynitrite donors: potential role for nitrosylation,” Am. J. Physiol., 279: H1982-H1988 (2000). The flow was maintained constant (9±2 mL/min/g wet weight) to reach a typical coronary perfusion pressure of 85-90 mm Hg. A constant proportion of 10% of the flow rate was applied by means of one of two perfusion pumps (Terumo, Tokyo, Japan) using a 50 mL syringe connected to the aortic cannula. Drug applications (see Experimental Protocols) were performed by switching from the syringe containing buffer alone to the syringe of the other pump containing the drug dissolved in the vehicle at a concentration 10× to the desired final concentration in the heart. A small hole in the left ventricular wall allowed drainage of the thebesian flow, and a polyvinyl-chloride balloon was placed into the left ventricle and connected to an electromanometer for recording of left ventricular pressure (LVP). The hearts were electrically paced at 280-300 bpm and kept in a temperature-controlled chamber (37° C.). Coronary perfusion pressure (CPP) and coronary flow were monitored with a second electromanometer and an electromagnetic flow-probe, respectively, both placed along the perfusion line. Left ventricular pressure, coronary flow and coronary perfusion pressure were recorded using a TEAC R-71 recorder, digitized at 1000 Hz and analyzed off-line with DataQ-Instruments/CODAS software, which allowed quantification of the maximum rate of increase of LVP during systole (dP/dtmax).
Hearts were perfused with Krebs-Henseleit solution gassed with 95% O2 and 5% CO2 of the following composition: 17.7 mM sodium bicarbonate, 127 mM NaCl, 5.1 mM KCl, 1.5 mM CaCl2, 1.26 mM MgCl2, 11 mM D-glucose, supplemented with 5 μg/mL lidocaine.
as §1, §2, §3

Isolated rat hearts [3] = assay: Ventricular function (contracture, contractile recovery) of isolated rat hearts in 30 min global ischemia / 30 min reperfusion; details: for Maximal increment of LVEDP during reperfusion: compared to control, vehicle, NAC and NAC+AS treated hearts (p<0.05), FIG. 2B
Procedure: as §4, §1, §2
Group 5 hearts were exposed to the vehicle (NaOH, final concentration 100 nM) used to dissolve both AS and DEA/NO. […]

Isolated rat hearts [4] = assay: Myocardial injury: LDH release in coronary effluent during reperfusion; details: pre-treatment; control 686±14 U/g wet wt; FIG. 4A
Procedure: as §1
as §2, with “In Group 4, a train of three cycles of 3 min global ischemia followed by 5 min of reperfusion was applied after the stabilization phase, followed by a final 10 min buffer wash-out period (IPC protocol).” left out
Assessment of myocardial injury. […] LDH release was measured as previously described by Bergmeyer & Bernt, “Methods of Enzymatic Analysis,” Verlag Chemie (1974). Data are expressed as cumulative values for the entire reflow period.

anesthetized rabbits = details: administered during ischemia and 5 minutes prior to reperfusion; cited from earlier work
rat renal tissue = details: administered during ischemia and 5 minutes before reperfusion; rat kidney; cited from earlier work
Nitroxyl donation pH = type: physicochemical; details: donates from this pH to about 10
From the text: “Nitroxyl donation pH” is the pH at which and above which a nitroxyl-donating compound donates nitroxyl.
Further, compounds are easily tested for nitroxyl donation with routine experiments. Although it is impractical to directly measure whether nitroxyl is donated, several tests are accepted for determining whether a compound donates nitroxyl. For example, the compound of interest can be placed in solution, for example in water, in a sealed container. After sufficient time for disassociation has elapsed, such as from several minutes to several hours, the headspace gas is withdrawn and analyzed to determine its composition, such as by gas chromatography and/or mass spectroscopy. […] Nitroxyl donation also can be detected by exposing the target donor to metmyoglobin (Mb^3+). Nitroxyl reacts with Mb^3+ to form an Mb^2+-NO complex, which can be detected by changes in the ultraviolet/visible spectrum or by Electron Paramagnetic Resonance (EPR). […]
Testing for nitroxyl donation in some cases is performed at a range of pHs to determine the nitroxyl donation pH of the nitroxyl-donating compound. […] After the lowest pH at which nitroxyl donation occurs in a first set of tests is found, additional tests can be performed with narrower ranges of pH around the first determined nitroxyl donation pH to obtain a more specific nitroxyl donation pH. […]

Isolated rat hearts [5] = assay: Example 2: infarct size after ischemia/reperfusion, different set of isolated rat hearts; details: same protocol as AS in Example 1, only one rat heart per intervention, FIG. 5
Procedure: FIG. 5 is a graph showing infarct size following 30 min of global ischemia and 30 min reperfusion for interventions in a different set of isolated rat hearts for interventions with control; ischemic preconditioning (IP); IPA/NO; AS; and DEA/NO.
To corroborate the data relative to myocardial injury, determined by LDH release, infarct areas were also assessed in a blinded fashion. At the end of the course (30 min reperfusion), each heart was rapidly removed from the perfusion apparatus, and the LV dissected into 2-3 mm circumferential slices. Following 15 min of incubation at 37° C. in 0.1% solution of nitro blue tetrazolium in phosphate buffer as described in Ma et al., “Opposite effects of nitric oxide and nitroxyl on postischemic myocardial injury,” Proc. Natl. Acad. Sci., 96:14617-14622 (1999), unstained necrotic tissue was separated from the stained viable tissue. The areas of viable and necrotic tissue were carefully separate by and independent observer (D. Mancardi, C. Penna, or R. Rastaldo) who was not aware of the origin of the hearts. The weight of the necrotic and non-necrotic tissues was then determined and the necrotic mass expressed as a percentage of total left ventricular mass.
The same methods as employed in Example 1 were used to assess the ischemia/reperfusion injury reducing effects of the nitroxyl donor IPA/NO. […]

isolated rat heart = assay: Example 2: coronary perfusion pressure during reperfusion; details: FIG. 6
Procedure: FIG. 6 is a graph showing the coronary perfusion pressures for the IPA/NO intervention of FIG. 5 and an intervention in an isolated rat heart with a vehicle for the same protocol as was used with AS and vehicle in FIG. 1. IPA/NO is represented by diamonds; vehicle is represented by squares.
Isolated heart perfusion. Each animal was anesthetized with 1 g/kg urethane i.p. 10 min after heparin (2,500 U, i.m.) treatment. The chest was opened, and the heart was rapidly excised, placed in ice-cold buffer solution and weighed. Isolated rat hearts were attached to the perfusion apparatus and retrogradely perfused with oxygenated buffer solution at 37° C. The hearts were instrumented as previously described in Rastaldo et al., “P-450 metabolite of arachidonic acid mediates bradykinin-induced negative inotropic effect,” Am. […] Coronary perfusion pressure (CPP) and coronary flow were monitored with a second electromanometer and an electromagnetic flow-probe, respectively, both placed along the perfusion line. Left ventricular pressure, coronary flow and coronary perfusion pressure were recorded using a TEAC R-71 recorder, digitized at 1000 Hz and analyzed off-line with DataQ-Instruments/CODAS software, which allowed quantification of the maximum rate of increase of LVP during systole (dP/dtmax). […]

[6] = End of stabilization period (baseline of the group, before treatment)
[7] = Post-treatment (pre-ischemic), AS 1 μM, DEA/NO 0.5 μM, NAC 4 mM, 19 min then 10 min wash-out

Row | SMILES | CPP (coronary perfusion pressure) (Isolated rat hearts [2]; [6]) | DP/dtmax (Isolated rat hearts [2]; [6]) | Developed LVP (Isolated rat hearts [2]; [6]) | LVEDP (left ventricular end-diastolic pressure) (Isolated rat hearts [2]; [6]) | CPP (coronary perfusion pressure) (Isolated rat hearts [2]; [7]) | DP/dtmax (Isolated rat hearts [2]; [7]) | Developed LVP (Isolated rat hearts [2]; [7]) | LVEDP (left ventricular end-diastolic pressure) (Isolated rat hearts [2]; [7]) | Maximal increment of LVEDP during reperfusion (Isolated rat hearts [3]) | LDH release into the coronary venous effluent during reperfusion (Isolated rat hearts [4]) | Nitroxyl donation pH (pH at and above which nitroxyl is donated) (Nitroxyl donation pH) | also measured
1 | CC(=O)N[C@@H](CS)C(=O)O [NAC, N-acetyl-L-cysteine] | 88 mmHg | 2760 mmHg/s | 89 mmHg | 8 mmHg | 88 mmHg | 2481 mmHg/s | 86 mmHg | 10 mmHg | – | – | – | Infarcted area, expressed as a percentage of the left ventricle (Isolated rat hearts [1]; 30 min global ischemia, 30 min reperfusion, control 39±2%, FIG. 4): 45+2%
2 | CCN(CC)/[N+]([O-])=N/O.CCNCC [DEA/NO, diethylamine diazeniumdiolate] | 91 mmHg | 3047 mmHg/s | 98 mmHg | 8 mmHg | 90 mmHg | 2976 mmHg/s | 99 mmHg | 9 mmHg | significantly lower | significantly reduced | – | Recovering contractile function (developed LVP, dP/dtmax) after ischemia/reperfusion (Isolated rat hearts [3]; vs control group, p=0.08 for dP/dtmax, p=0.07 for developed LVP, DEA/NO 0.5 μM): less effective; Protective effect: infarct size change vs controls (Isolated rat hearts [1]; DEA/NO 0.5 μM pre-ischemic, p<0.05 vs controls, weaker than AS or IPC): −30%
3 | [Na+].[Na+].[O-][N+]([O-])=NO [AS, sodium trioxodinitrate] | 89 mmHg | 3145 mmHg/s | 99 mmHg | 9 mmHg | 88 mmHg | 3223 mmHg/s | 98 mmHg | 10 mmHg | significantly lower | significantly reduced | about 3 | Post-ischemic recovery of developed LVP (Isolated rat hearts [3]; 30 min ischemia, 30 min reperfusion, vs pre-ischemic value, controls 38%, AS 1 μM pre-ischemic, FIG. 3A): about 55%; Post-ischemic recovery of dP/dtmax (Isolated rat hearts [3]; 30 min ischemia, 30 min reperfusion, vs pre-ischemic value, controls 39%, AS 1 μM pre-ischemic, FIG. 3B): 57%; Infarct size reduction compared to controls (Isolated rat hearts [1]; AS 1 μM pre-ischemic, p<0.01 vs controls): 55%; Effect on myocardial ischemia/reperfusion injury (anesthetized rabbits): increased myocardial ischemia/reperfusion injury; Effect on neutrophil infiltration into renal tissue (rat renal tissue): contributed to neutrophil infiltration into the tissue
4 | CC(C)N[N+]([O-])=N[O-].[Na+] [IPA/NO, isopropylamine/NO] | – | – | – | – | – | – | – | – | – | – | about 5.5 | Infarct size reduction as compared to control (Isolated rat hearts [5]): about 36%; Coronary perfusion pressure during reperfusion (isolated rat heart): returned to normal
